Experimental data reported in patent publication US5461057A, “Hydro-ethano-indeno-pyridines” (priority 1994, dated 1995).

system: histamine-induced dyspnea; assay: Bronchodilator (in vivo) Guinea Pig Dyspnea; settings: 100 mg/kg, oral, one hour before histamine challenge
Experimental: Unanesthetized guinea pigs (250-350 g), fasted overnight were placed in individual closed aerosol chambers which were connected to a Monoghan Ultrasonic nebulizer. The nebulizer can deliver an ultrasonic fog of uniform particles in a range of 1-8 microns. A 0.1% solution of histamine is aerosolized into the chambers causing the guinea pigs to develop dyspnea. The test drug was given orally one hour before the histamine challenge and the onset of dyspnea was recorded. Saline control animals developed dyspnea within 90-120 seconds of aerosol exposure. […] The data was expressed as the number tested over the number survived. The model was sensitive to bronchodilator and H1 antihistamine activity. Further information relating this test can be obtained from the following two publications which are hereby incorporated by reference: Dungan, K. W. and Lish, P. M. J Allergy 32:139-151 (1961). and Lish, P. M., Robbins, S. I. and Petres E. L. J. Pharmacol. Exp. Therap. 153 L 1538 (1966 ).

| SMILES | DYSP survivors |
| --- | --- |
| c1ccc(C2=C3CC4CCC(N4)C3c3ccccc32)cc1 (stereo not drawn) [Q] | 0/3 |

same assay, conditions: Cavia porcellus, 1 h; 50 mg/kg, oral, one hour before histamine challenge; read-out: DYSP survivors (converted)

| SMILES | responders at 50 mg/kg [%] |
| --- | --- |
| CN1C2CCC1C1c3ccccc3C(O)(c3ccccc3)C1C2 (stereo not drawn) [AAA] | 0 |
| CN1C2CCC1C1c3ccccc3C(O)(c3ccc(F)cc3)C1C2 (stereo not drawn) [SS] | 33.3 |

same assay, conditions: Cavia porcellus, 1 h; 100 mg/kg, oral, one hour before histamine challenge; read-out: DYSP survivors (converted)

| SMILES | responders at 100 mg/kg [%] |
| --- | --- |
| CN1C2CCC1C1c3ccccc3C(O)(c3ccc(F)cc3)C1C2 (stereo not drawn) [SS] | 100 |

system: pulmonary resistance; assay: Pulmonary Resistance in the Anesthetized Rat; format: in vivo; settings: 0.5 mpk, i.v.; mean of 5 animals; % decrease in pre-drug baseline resistance
Experimental: Rats (400-500 g) anesthetized with dialurethane were surgically prepared with tracheal and esophageal catheters. These catheters were connected to pressure transducers for recording of air flow, tracheal and esophageal pressures. These pressures formed the basis for measurement of pulmonary resistance. Inhibition of pulmonary resistance is a reflection of bronchodilation.
All compounds were tested i. v. in 5 separate animals. All data are expressed in % decrease in the pre-drug baseline resistance and each number given is the mean of the 5 animals tested.
The model is sensitive to bronchodilator activity.
Further information relating this test can be obtained from the following publications which are hereby incorporated by reference: Comroe et al, J. Appl. Physio. 4:439-44 (1959); Dungan et al J. Pharmacol. Exp. Therap. 164:290-301(1968); and Mead, J. et al. J. Appl. Physio. 5:779-796 (1953).

| SMILES | Pulmonary Resistance in Rats, % Inhibition [%] |
| --- | --- |
| c1ccc(C2=C3CC4CCC(N4)C3c3ccccc32)cc1 (stereo not drawn) [Q] | 24 |

same assay, conditions: Rattus norvegicus, iv; 0.5 mpk, i.v.; mean of 5 animals; % decrease in pre-drug baseline resistance; read-out: Pulmonary Resistance in Rats, % Inhibition

| SMILES | inhibition in vivo at 0.5 mg/kg [%] |
| --- | --- |
| CN1C2CCC1C1c3ccccc3C(O)(c3ccccc3)C1C2 (stereo not drawn) [AAA] | 35 |
| CN1C2CCC1C1c3ccccc3C(O)(c3ccc(F)cc3)C1C2 (stereo not drawn) [SS] | 22 |

system: acetic acid-induced writhing; assay: Acetic Acid Writhing Test in Mice; format: in vivo, mouse; settings: Mus musculus, po, read-out: WRITH ED50
Excerpt: The blockade of writhing induced by the intraperitoneal injection of acetic acid is an established experimental animal model for the screening of antinociceptive drugs (drugs which prevent the appreciation or transmission of pain sensations).
The procedure for the Acetic Acid Writhing Test in Mice is set forth in Hendershot et al, J. Pharmacol. Exp. Therap. 125:237, (1959); Koster et al., Fed. Proc. 18:412, (1959); and international application PCT/US91/06705, filed 20 Sep. 1991, which are hereby incorporated by reference.
The results for this test are given below in the units of mg/kg which is also abbreviated in this specification as mpk. The results for this test are given as effective doses (ED50 's).

| SMILES | ED50 [mg/kg] |
| --- | --- |
| CN1C2CCC1C1c3ccccc3C(O)(c3ccccc3)C1C2 (stereo not drawn) [AAA] | > 30 |
| CN1C2CCC1C1c3ccccc3C(O)(c3ccc(F)cc3)C1C2 (stereo not drawn) [SS] | > 30 |
| c1ccc(C2=C3CC4CCC(N4)C3c3ccccc32)cc1 (stereo not drawn) [Q] | > 30 |

system: TBZ-induced ptosis; assay: Effects on tetrabenazine (TBZ)-induced ptosis in mice; format: in vivo, mouse; settings: Mus musculus, po
Excerpt: Clinically active antidepressant drugs are known to block TBZ-induced ptosis in mice (See Psychosomatic Medicine, Nodine and Moyer, Eds. Lea and Febiger, Philadelphia, 1962, pp 683-90, which is hereby incorporated by reference). Activity in this test is used to predict anti-depressant activity in man.
The procedure for the TBZ-Induced Ptosis Test in Mice is set forth in Psychosomatic Medicine, Nodine and Moyer, Eds. Lea and Febiger, which is hereby incorporated by reference and in PCT/US91/06705, filed 20 Sep. 1991, which is mentioned above.
(§1) The results for this test are given below as ED50 's in the units of mg/kg.
TBZ refers to the test of effects on tetrabenazine induced ptosis in mice, p.o.;

| SMILES | ED50 [mg/kg] |
| --- | --- |
| CN1C2CCC1C1c3ccccc3C(O)(c3ccccc3)C1C2 (stereo not drawn) [AAA] | > 30 |
| CN1C2CCC1C1c3ccccc3C(O)(c3ccc(F)cc3)C1C2 (stereo not drawn) [SS] | > 30 |
| c1ccc(C2=C3CC4CCC(N4)C3c3ccccc32)cc1 (stereo not drawn) [Q] | 3.6 |

system: muricidal (mouse-killing) behavior; assay: Effects on muricidal behavior in rats; format: in vivo, rat; settings: Rattus norvegicus, read-out: MUR ED50
Excerpt: Blockade of muricidal (mouse-killing) behavior in rats is used as a measure of evaluating the anti-depressant activity of drugs, and the procedure for carrying out this test is set forth in Int. J. Neuro-pharmacal., 5, 405-411 (1966) are hereby incorporated by reference, and in PCT/US91/06705, filed 20 Sep. 1991, which is mentioned above.
as §1
MUR refers to the test on the effects on muricidal behavior in rats;

| SMILES | ED50 [mg/kg] |
| --- | --- |
| CN1C2CCC1C1c3ccccc3C(O)(c3ccccc3)C1C2 (stereo not drawn) [AAA] | > 10 |
| CN1C2CCC1C1c3ccccc3C(O)(c3ccc(F)cc3)C1C2 (stereo not drawn) [SS] | > 10 |
| c1ccc(C2=C3CC4CCC(N4)C3c3ccccc32)cc1 (stereo not drawn) [Q] | > 10 |

system: methamphetamine toxicity; assay: Methamphetamine toxicity test in mice; format: in vivo; settings: Mus musculus, read-out: METHA ED50
Experimental: The methamphetamine toxicity test in mice was carried out as described in Burn et al, Arch. Int. Pharmacodyn 113:290-295, (1958); and Coscia et al, Arzneim-Forsch (Drug Research) 25:1436-1442, (1975); which are hereby incorporated by reference.
(§2) The results for this test are given below as ED50's in the units of mg/kg.
METHA refers to the methamphetamine toxicity test in mice;

| SMILES | ED50 [mg/kg] |
| --- | --- |
| CN1C2CCC1C1c3ccccc3C(O)(c3ccccc3)C1C2 (stereo not drawn) [AAA] | > 30 |
| CN1C2CCC1C1c3ccccc3C(O)(c3ccc(F)cc3)C1C2 (stereo not drawn) [SS] | > 30 |

system: metrazole; assay: Anti-metrazole test in mice; format: in vivo, mouse; settings: Mus musculus, read-out: MTZ ED50
Experimental: The anti-metrazole test in mice was carried out as described in Everett et al, J. Pharmacol. Exp. Therap. 81:402-407 (1944); which is hereby incorporated by reference.
as §2

| SMILES | ED50 [mg/kg] |
| --- | --- |
| CN1C2CCC1C1c3ccccc3C(O)(c3ccccc3)C1C2 (stereo not drawn) [AAA] | > 30 |
| CN1C2CCC1C1c3ccccc3C(O)(c3ccc(F)cc3)C1C2 (stereo not drawn) [SS] | > 30 |
| c1ccc(C2=C3CC4CCC(N4)C3c3ccccc32)cc1 (stereo not drawn) [Q] | > 30 |

system: LOX human melanoma cell adhesion to human fibronectin; assay: LOX melanoma cell adhesion to fibronectin; format: cell-based; settings: Homo sapiens, LOX, 10 μM; read-out: % Inhibition at 10 μM
Experimental: (§3) Adhesion assays were run essentially as described previously (Pai et al., J. Biomed. Res. 2: 53, 1992). 96-well plates were coated with human fibronectin (140 ng/well), human vitronectin (75 ng/well), human collagen I (100 ng/well), human collagen IV (100 ng/well), human fibrinogen (1 μg/well), murine laminin (600 ng/well), or polylysine, and incubated overnight in a humidified 37° C. incubator. Excess fibronectin or other substrate was then removed and 0.2 ml of 2 mg/ml bovine serum albumin (BSA)in Dulbecco's phosphate-buffered saline (DPBS) was added to each well, incubated for 2 hours at 37° C., and removed. LOX human melanoma cells, M27 murine lung carcinoma cells or B16F10 mouse melanoma cells were detached from tissue culture flasks with RPMI medium containing 0.2M urea and 10 mM EDTA, and 0.18 ml of cells were added to each well to a final cell concentration of 1×10^5 cells/well. For inhibition studies 20 μl of 10× compound was added to the wells prior to cell addition. Cells were allowed to adhere for 1 hour at 37° C. The wells were then gently washed twice with 0.2 ml DPBS. The fluorescent dye calcein AM (Molecular Probes, Eugene Oreg.) in DPBS (0.1 ml of 1 μM) was added to each well, and the plates were incubated for 1 hour at room temperature. Adherent cells were quantitated by reading the fluorescence on a Cytofluor 2300 fluorescent plate reader (Millipore) at 485 nm excitation and 530 nm emission.
LOX FN-IC50 value for inhibition of adhesion of LOX human melanoma cells to fibronectin coated on a plastic surface.

| SMILES | inhibition at 10 µM [%] |
| --- | --- |
| CN1C2CCC1C1c3ccccc3C(O)(c3ccccc3)C1C2 (stereo not drawn) [AAA] | 5.2 |
| CN1C2CCC1C1c3ccccc3C(O)(c3ccc(F)cc3)C1C2 (stereo not drawn) [SS] | 10.1 |
| c1ccc(C2=C3CC4CCC(N4)C3c3ccccc32)cc1 (stereo not drawn) [Q] | 0.1 |

same assay, conditions: Homo sapiens, LOX, 50 μM; read-out: % Inhibition at 50 μM

| SMILES | inhibition at 50 µM [%] |
| --- | --- |
| CN1C2CCC1C1c3ccccc3C(O)(c3ccccc3)C1C2 (stereo not drawn) [AAA] | 5.8 |
| CN1C2CCC1C1c3ccccc3C(O)(c3ccc(F)cc3)C1C2 (stereo not drawn) [SS] | 17.3 |
| c1ccc(C2=C3CC4CCC(N4)C3c3ccccc32)cc1 (stereo not drawn) [Q] | 97.1 |

same assay, conditions: Homo sapiens, LOX; Table 4; 1 hour adhesion; read-out: LOX FN IC50

| SMILES | IC50 [µM] |
| --- | --- |
| CN1C2CCC1C1c3ccccc3C(O)(c3ccc(F)cc3)C1C2 (stereo not drawn) [SS] | > 50 |
| c1ccc(C2=C3CC4CCC(N4)C3c3ccccc32)cc1 (stereo not drawn) [Q] | 19.1 |

system: not listed separately; assay: Calcein cytotoxicity assay; format: cell-based; settings: human, lox melanoma cells; 2 hours, calcein AM assay; read-out: 2 Hr Tox LD50
Experimental: LOX human melanoma cells were detached from tissue culture flasks with RPMI medium containing 0.2M urea and 10 mM EDTA, and 0.18 ml of cells were added to each well to a final cell concentration of 5×10^4 cells/well. 20 μl of 10× compound was added to the wells prior to cell addition. Cells were incubated with the compound at 37° C. for 1 hour or 5 hour as indicated. Calcein AM in DPBS (0.02 ml of 5 μM) was added to each well, and the plates were incubated for an additional 1 hour at room temperature. Viable cells were quantitated by reading the fluorescence on a Cytofluor 2300 fluorescent plate reader at 485 nm excitation and 530 nm emission.

| SMILES | CC50 at 2 h [µM] |
| --- | --- |
| CN1C2CCC1C1c3ccccc3C(O)(c3ccc(F)cc3)C1C2 (stereo not drawn) [SS] | > 250 |
| c1ccc(C2=C3CC4CCC(N4)C3c3ccccc32)cc1 (stereo not drawn) [Q] | 66.7 |

system: LOX human melanoma cell adhesion to polylysine; assay: LOX melanoma cell adhesion to polylysine; format: cell-based; settings: read-out: Poly Lys IC50
Experimental: as §3

| SMILES | IC50 [µM] |
| --- | --- |
| CN1C2CCC1C1c3ccccc3C(O)(c3ccc(F)cc3)C1C2 (stereo not drawn) [SS] | > 250 |
| c1ccc(C2=C3CC4CCC(N4)C3c3ccccc32)cc1 (stereo not drawn) [Q] | 83.6 |
